The text below walks through data of BindingDB's records for doi:10.1021/acs.jmedchem.7b00606 (Griffith University, 2017).

The assay concerns the target Carbonic anhydrase 2 (Homo sapiens, UniProt P00918). Nature of the assay: Binding affinity to human carbonic anhydrase 2 by surface plasmon resonance spectrometry. For orientation: SPR reads the build-up and loss of mass on a sensor chip optically.

Where only a bound is given, the exact number is not on record here.

Take `O=c1[nH]c(O)c(-c2ccccc2)[nH]1` [5-Phenyl-imidazolidine-2,4-dione]: the dissociation constant Kd (usually a measure of binding affinity in units of concentration) was more than 2 mM.
